In brackets after ≈: the same amount, converted by molar mass. Where two headings read alike, the source gives them in different places.

Series [1] has as its system human peripheral blood mononuclear cells (PBMC). Nature of the series: Cell viability/proliferation of PBMC by MTT-test and trypan blue exclusion. The class given is cell-based. To be noted: 48 h, read-out: IC50 number of viable cells. On the procedure: PBMC were isolated from whole blood obtained from healthy donors of whom written informed consent was obtained that their donated blood might be used for scientific purposes in case when it was not selected for transfusion. Separation of blood cells was performed using density centrifugation (Lymphoprep, Nycomed Pharma AS, Oslo, Norway). After isolation, PBMC were washed three times in phosphate buffered saline containing 0.2% 0.5 mM EDTA. Cells were maintained in RPMI 1640 supplemented with 10% heat-inactivated fetal calf serum (Biochrom, Berlin, Germany), 2 mM glutamine (Serva, Heidelberg, Germany) and 0.05 mg/ml gentamicin (Bio-Whittaker, Walkersville, Md.) in a humidified atmosphere containing 5% CO2 for 48 h. This procedure was observed earlier to yield best reproducible results when applied for testing of anti-inflammatory effects of compounds or drugs (Winkler et al., 2007, Int. Arch. Allergy Immunol. 142, 127-132). For each of the four experiments run in duplicates, PBMC were freshly prepared.
Consequently, the cells were stimulated or not with 10 μg/ml PHA or Con A for 48 h.
(§1) After incubation of PBMC with mitogens Con A or PHA (each 10 μg/ml) or treatment of THP-1 cells with LPS (1 μg/ml ), with or without cannabinoids for 48 h, cell viability was measured by MTT-test (3-[4,5-[…]]-2,5 diphenyl tetrazolium bromide) and by trypan blue exclusion method in three experiments performed in triplicates. No toxicity could be observed with solvent (0.1% EtOH; data not shown). IC50 were calculated by the CalcuSyn software from Biosoft, Cambridge, UK, using the original concept of Chou and Talalay (Chou and Talalay, 1984, Adv. Enzyme Regul. 22, 27-55).
In general terms: Tetrazolium dyes change colour on reduction, which living cells bring about.

The subject of series [2] is Myelomonocytic THP-1 cells. Nature of the series: Cell viability of THP-1 cells by MTT-test and trypan blue exclusion. The class given is cell-based. The following applies: 0.1-10 μg/ml, unstimulated or LPS (1 μg/ml) stimulated THP-1 cells, 48 h. As to the method: Myelomonocytic THP-1 cells were obtained from European Collection of Cell Cultures (ECACC). […] Afterwards, cells were stimulated or not with 1 μg/ml LPS for 48 h.
as §1

Series [3] relates to indoleamine 2,3-dioxygenase (IDO). Nature of the series: IDO activity (kyn/trp by HPLC) in PBMC supernatants. The class given is cell-based, human. The following applies: for IC50: Homo sapiens, PBMC; for effect of low doses on activity of the IDO enzyme: low doses 0.01-0.1 μg/ml, mitogen-stimulated PBMC.
Another series concerns neopterin formation. Nature of the series: Neopterin formation in PBMC supernatants (ELISA). The class given is cell-based. The following applies: Homo sapiens. On the technique in general: An ELISA detects its analyte on a solid surface through an enzyme-linked reagent.
For a further series, the system named is IDO mRNA. Briefly: IDO mRNA expression in PHA stimulated PBMC (real-time RT-PCR). The class given is cell-based, human. To be noted: 5 μg/ml (highest concentration tested), PHA 5 μg/ml, 6 h. As to the method:
(§2) For quantification of IDO and IFN-γ gene expression, RNA was extracted from PBMC using Trizol reagent (Invitrogen, Vienna, Austria) and reverse-transcribed using Superscript II reverse transcriptase (Invitrogen). Thirty cyles of PCR were performed using Sure Start Taq polymerase (Stratagene, La Jolla, Calif.). Levels of mRNA were quantified by real-time PCR with the ABI/PRISM 7700 sequence detection system (PE Applied Biosystems, Foster City, Calif.). 18sRNA was used as an invariant endogenous control. Specific primers and an internal fluorescent TaqMan probe were designed as follows: human 18sRNA primers, 5′-[…]-3′ (SEQ ID NO:1) and 5′-[…]-3′ (SEQ ID NO:2); 18sRNA probe, 5′-FAM-[…]-TAMRA-3′ (SEQ ID NO:3); human IDO primers, 5′-[…]-3′ (SEQ ID NO:4) and 5′-[…]-3′ (SEQ ID NO:5); IDO probe, 5′-FAM-[…]-TAMRA-3′ (SEQ ID NO:6); human IFN-γ primers, 5′[…]-3′ (SEQ ID NO:7), 5′-[…]-3′ (SEQ ID NO:8); IFN-γ probe, 5′-FAM-[…]-TAMRA-3′ (SEQ ID NO:9). Relative mRNA expression was calculated by dividing the relative quantity of each PCR product by the relative quantity of 18sRNA in each sample.
On the technique in general: In qPCR the cycle at which signal appears reflects the starting amount.

The next series concerns IFN-γ mRNA. Nature of the series: IFN-γ mRNA expression in PHA stimulated PBMC (real-time RT-PCR). The class given is cell-based, human. To be noted: 5 μg/ml (highest concentration tested), PHA 5 μg/ml, 6 h. On the procedure:
as §2

Series [4] deals with indoleamine 2,3-dioxygenase (IDO). Nature of the series: IDO activity (kyn/trp by HPLC) in THP-1 cells. The class given is cell-based. To be noted: for IC50: Homo sapiens, LPS (1 μg/ml) stimulated THP-1 cells, 48 h, read-out: IC50 decrease of kyn/trp (LPS-induced tryptophan degradation); for effect on tryptophan metabolism (kyn/trp): unstimulated THP-1 cells, CBD effect at the highest concentration tested.

Another series addresses CB2 receptors (Homo sapiens, UniProt P34972). To be noted: reported; cited from earlier work.
Another series deals with CB1/CB2. The following applies: reported; cited from earlier work.
The mark [5] stands for this setting: Con A-stimulated PBMC (10 μg/ml).
[6] abbreviates: unstimulated PBMC, 0.01-20 μg/ml.
Setting [7] is: 48 h, Con A-stimulated PBMC (10 μg/ml), 48 h, read-out: IC50 mitogen-induced IDO activity (kyn/trp).
[8] abbreviates: 48 h, PHA-stimulated PBMC (10 μg/ml), 48 h, read-out: IC50 mitogen-induced IDO activity (kyn/trp).
[9] abbreviates: unstimulated PBMC, 0.01-10 μg/ml, read-out: IC50 decrease of kyn/trp.
Where [10] appears, read: 48 h, Con A-stimulated PBMC (10 μg/ml), 48 h, read-out: IC50 mitogen-induced neopterin production.
The mark [11] stands for this setting: 48 h, PHA-stimulated PBMC (10 μg/ml), 48 h, read-out: IC50 mitogen-induced neopterin production.
Where [12] appears, read: unstimulated PBMC, read-out: IC50 release of neopterin.

Chain of CB2 receptors (P34972 whole entry): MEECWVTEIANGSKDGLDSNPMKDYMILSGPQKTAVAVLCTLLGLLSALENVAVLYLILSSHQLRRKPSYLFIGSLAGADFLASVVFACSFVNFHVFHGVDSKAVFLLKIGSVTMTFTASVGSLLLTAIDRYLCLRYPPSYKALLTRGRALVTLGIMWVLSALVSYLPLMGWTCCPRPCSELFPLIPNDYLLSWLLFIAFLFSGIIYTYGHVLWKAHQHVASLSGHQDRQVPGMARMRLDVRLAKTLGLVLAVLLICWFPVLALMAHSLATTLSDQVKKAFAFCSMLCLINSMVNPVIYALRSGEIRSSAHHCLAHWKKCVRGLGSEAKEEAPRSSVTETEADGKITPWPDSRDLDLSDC

Regarding `CCCCCc1cc(O)c2c(c1)OC(C)(C)[C@@H]1CCC(C)=C[C@@H]21` [THC, (6aR,10aR)-6,6,9-Trimethyl-3-pentyl-6a, 7,8,10a-tetrahydro-6H-benzo[c]chromen-1-ol], the IC50 in series [1] (setting [5]) worked out at 17.5 µg/mL (≈ 55.6 µM); in [1] (PHA-stimulated PBMC (10 μg/ml)), 15.2 µg/mL (≈ 48.3 µM); in [1] (setting [6]) it was 14.5 µg/mL (≈ 46.1 µM); in series [3] (setting [7]), 4.2 µg/mL (≈ 13.4 µM); in [3] (setting [8]) it was 5.5 µg/mL (≈ 17.5 µM); in series [3] (setting [9]) it was 2.6 µg/mL (≈ 8.27 µM). The IC50 in the series on neopterin formation (setting [10]) was 6.7 µg/mL (≈ 21.3 µM); in the series on neopterin formation (setting [11]), 5.3 µg/mL (≈ 16.9 µM); in the series on neopterin formation (setting [12]) it was 16.7 µg/mL (≈ 53.1 µM); in [4] it was 0.6 µg/mL (≈ 1.91 µM). In [2], the “influence on viability of THP-1 cells” value is “did not show any influence”. The “effect of low doses on activity of the IDO enzyme” value in [3] is listed as “modest but significant increase”. Moreover, in the series with IDO mRNA, the “inhibition of mitogen-stimulated expression of IDO mRNA” value is reported as “almost completely, inhibit”. Further, the “inhibition of mitogen-stimulated expression of IFN-γ mRNA” value with IFN-γ mRNA is reported as “almost completely, inhibit”. The “effect on tryptophan metabolism (kyn/trp)” value in series [4] was “did not influence tryptophan metabolism”.
As for `C=C(C)[C@@H]1CCC(C)=C[C@H]1c1c(O)cc(CCCCC)cc1O` [CBD, 2-[(1R,6R)-3-methyl-6-prop-1-en-2-yl-1-cyclohex-2-enyl]-5-pentylbenzene-1,3-diol], the IC50 in [1] (setting [5]) was 8.6 µg/mL (≈ 27.3 µM); in series [1] (PHA-stimulated PBMC (10 μg/ml)), 8.5 µg/mL (≈ 27 µM); in series [1] (setting [6]), 7.3 µg/mL (≈ 23.2 µM); in series [3] (setting [7]) it was 2.8 µg/mL (≈ 8.9 µM); in series [3] (setting [8]) it was 1.4 µg/mL (≈ 4.45 µM); in [3] (setting [9]), 1.2 µg/mL (≈ 3.82 µM). For the same compound, the IC50 came out at 3.1 µg/mL (≈ 9.86 µM) with neopterin formation (setting [10]), 3.7 µg/mL (≈ 11.8 µM) in the series with neopterin formation (setting [11]), 8.2 µg/mL (≈ 26.1 µM) with neopterin formation (setting [12]) and 0.3 µg/mL (≈ 0.954 µM) in series [4]. The “influence on viability of THP-1 cells” value in series [2] is “did not show any influence”. Also, the “effect of low doses on activity of the IDO enzyme” value in series [3] is given as “modest but significant increase”. In addition, the “inhibition of mitogen-stimulated expression of IDO mRNA” value in the series with IDO mRNA is recorded as “almost completely, inhibit”. The “inhibition of mitogen-stimulated expression of IFN-γ mRNA” value in the series with IFN-γ mRNA is “almost completely, inhibit”. In [4], the “effect on tryptophan metabolism (kyn/trp)” value was “faint suppression of tryptophan degradation”. Besides, the affinity result at CB2 receptors is reported as “micromolar range”. Besides, the “KB antagonism of CB1/CB2 agonists” value in the series with CB1/CB2 is recorded as “low nanomolar range”.

These data come from patent US20110257256A1, “CANNABINOIDS FOR USE IN TREATING OR […] […] […]” (priority 2008, published 2011).
